Data published in ChEMBL document CHEMBL1201862, “PubChem BioAssay data set” (2004).
Calls of active or inactive are those of the source.

How the values were obtained:
[1] = target: Glutathione-S-transferase (Schistosoma japonicum, UniProt Q26513); assay: GST-antibody interaction or FRET quenching – biochemical, TR-FRET, artefact control for Vif-APOBEC3G degradation inhibitor project, dose response (AID 1117362); assay type: functional
[2] = viability loss in THP-1 monocytes – THP-1 cells, cytotoxicity control for Vif-APOBEC3G degradation inhibitor project, dose response (AID 1117359); assay type: functional; conditions: THP-1
[3] = target: Glucose-6-phosphate 1-dehydrogenase (Homo sapiens, UniProt P11413); assay: inhibition of Homo sapiens G6PD, dose series – biochemical, fluorescence, selectivity assay for P. falciparum G6PD inhibitor project, dose response (AID 504792); assay type: functional
[4] = target: T1, Protein Tat (Human immunodeficiency virus type 1 group M subtype B (isolate HXB2)(HIV-1), UniProt P04608); assay type: functional;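 note: tat binding to TAR RNA read out by fluorescence polarization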
T1 sequence (P04608 whole entry): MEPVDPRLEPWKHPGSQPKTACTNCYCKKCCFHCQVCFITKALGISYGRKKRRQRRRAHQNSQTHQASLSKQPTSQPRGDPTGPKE

[5] = target: Genome polyprotein (dengue virus type 2, UniProt P29990); assay: flavivirus cap methylation enzyme inhibition – biochemical, confirmation dose response, primary screen (AID 588689); assay type: functional
[6] = HIV-1 Vif–A3G interaction blockers – biochemical, TR-FRET, GST-Vif 1-94, biotin-A3G peptide, dose response retest, primary screen (AID 1117319); assay type: functional;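 note: TR-FRET signal of purified GST-Vif binding a biotinylated A3G peptide; inhibitors lower the FRET signal by blocking Vif and A3G binding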
[7] = viability loss in Vero cells – cytotoxicity control for Vif-APOBEC3G degradation inhibitor project, dose response (AID 1117358); assay type: functional; conditions: Vero
[8] = target: Heat shock protein HSP 90-alpha (Homo sapiens, UniProt P07900); assay type: functional, organism-based
[9] = target: E3 ubiquitin-protein ligase Mdm2 (Homo sapiens, UniProt Q00987); assay: MDM2-luc reporter signal enhancers, multi-concentration potency testing, MDM2 ubiquitin-protein ligase inhibitor program, whole-cell format, luminescence detection, 384-well microplate (AID 1394); assay type: functional;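 note: MDM2 E3 inhibitors raise luminescence so EC50 is for signal enhancement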
[10] = target: Peroxisome proliferator-activated receptor gamma/Nuclear receptor coactivator 3 (Homo sapiens, UniProt P37231); assay type: functional;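 note: agonist potency for raising coactivator recruitment to the receptor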
[11] = target: Neuropeptide Y receptor type 2 (Homo sapiens, UniProt P49146); assay: IC50 for human NPY-Y2 blockade – cell-based, counter-screen for NPY-Y1 antagonist project, dose response (AID 1278); assay type: functional
[12] = target: Peroxisome proliferator-activated receptor gamma/Nuclear receptor coactivator 1 (Homo sapiens, UniProt P37231); assay type: functional;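 note: agonist potency as compounds enhance coactivator SRC-1 recruitment to PPARgamma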
[13] = target: Peroxisome proliferator-activated receptor gamma/Nuclear receptor coactivator 2 (Homo sapiens, UniProt P37231); assay type: functional;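 note: agonist potency for raising coactivator recruitment to the receptor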
[14] = target: T2, Bcl-2-related protein A1 (Mus musculus, UniProt Q07440); assay: displacement of Bid BH3 peptide from Bfl-1 – biochemical, fluorescence polarization, FITC-Bid, mouse, primary screen (AID 432)
T2 sequence (Q07440 whole entry): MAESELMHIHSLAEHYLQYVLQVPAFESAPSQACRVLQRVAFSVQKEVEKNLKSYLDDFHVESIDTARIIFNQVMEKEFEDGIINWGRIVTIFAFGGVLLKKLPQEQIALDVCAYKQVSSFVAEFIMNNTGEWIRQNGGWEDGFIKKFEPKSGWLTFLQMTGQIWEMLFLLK

[15] = target: T2, Bcl-2-related protein A1; assay: small-molecule antagonists of Bfl-1/BH3 interaction – biochemical, TR-FRET, mouse Bfl-1, confirmation (AID 621);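 note: TR-FRET binding of GST-Bfl-1 to FITC-labelled Bid peptide via terbium antibody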
[16] = general cell-killing toxicity readout – plate reader, dry powder samples, cytotoxicity control for PAX8 inhibitor project, dose response (AID 743021); assay type: functional, cell-based
[17] = target: Paired box protein Pax-8 (Homo sapiens, UniProt Q06710); assay: PAX8 transcriptional activity inhibition in RMG-I – RMG-I cells, luciferase, cherry-pick, dose response (AID 687027); assay type: functional, cell-based;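 note: luciferase reporter driven by Pax8 target thyroperoxidase promoter measured by SteadyGlo luminescence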
[18] = A2780 cell killing – plate reader, dry powder samples, cytotoxicity control, dose response (AID 743046); assay type: functional, cell-based
[19] = OVCAR-3 cell viability loss – plate reader, dry powder samples, PAX8 inhibitor project, dose response (AID 743044); assay type: functional, cell-based
[20] = P. falciparum Dd2 growth inhibitors, dose response, SYBR Green, cherry-picked samples (AID 1159567); assay type: functional, cell-based
[21] = IGROV1 cell killing – plate reader, dry powder samples, PAX8 inhibitor project, dose response (AID 743043); assay type: functional, cell-based; conditions: IGROV-1
[22] = Dd2 malaria parasite growth inhibition potency – SYBR Green, dry powder samples, dose response (AID 1159566); assay type: functional, cell-based;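 note: potency for growth inhibition with lower SYBR green DNA signal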
[23] = OVCAR8 cell viability loss – plate reader, dry powder samples, PAX8 project, dose response (AID 743197); assay type: functional, cell-based; conditions: OVCAR-8
[24] = toxicity to human HepG2 hepatoma cells – cell-based, plate reader, dry powder samples, cytotoxicity control, dose response (AID 1159569); assay type: functional;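 note: inhibitor potency with signal falling toward the positive control level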
[25] = toxicity toward immortalized ovarian surface epithelium – cell-based, plate reader, dry powder samples, cytotoxicity control for PAX8 inhibitor project, dose response (AID 743045); assay type: functional
[26] = growth inhibition of yeast DHODH-expressing 3D7 parasites – SYBR Green, dry powder samples, dose response (AID 1159570); assay type: functional, cell-based;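 note: parasite growth measured after 72 hours of compound exposure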
[27] = growth inhibition of PfATP4-mutant resistant parasites – NITD609-resistant line, SYBR Green, dry powder, dose response (AID 1159571); assay type: functional, cell-based;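 note: parasites synchronized at ring stage by sorbitol before testing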

Chain of Genome polyprotein (P29990 2492-3391 limits assumed): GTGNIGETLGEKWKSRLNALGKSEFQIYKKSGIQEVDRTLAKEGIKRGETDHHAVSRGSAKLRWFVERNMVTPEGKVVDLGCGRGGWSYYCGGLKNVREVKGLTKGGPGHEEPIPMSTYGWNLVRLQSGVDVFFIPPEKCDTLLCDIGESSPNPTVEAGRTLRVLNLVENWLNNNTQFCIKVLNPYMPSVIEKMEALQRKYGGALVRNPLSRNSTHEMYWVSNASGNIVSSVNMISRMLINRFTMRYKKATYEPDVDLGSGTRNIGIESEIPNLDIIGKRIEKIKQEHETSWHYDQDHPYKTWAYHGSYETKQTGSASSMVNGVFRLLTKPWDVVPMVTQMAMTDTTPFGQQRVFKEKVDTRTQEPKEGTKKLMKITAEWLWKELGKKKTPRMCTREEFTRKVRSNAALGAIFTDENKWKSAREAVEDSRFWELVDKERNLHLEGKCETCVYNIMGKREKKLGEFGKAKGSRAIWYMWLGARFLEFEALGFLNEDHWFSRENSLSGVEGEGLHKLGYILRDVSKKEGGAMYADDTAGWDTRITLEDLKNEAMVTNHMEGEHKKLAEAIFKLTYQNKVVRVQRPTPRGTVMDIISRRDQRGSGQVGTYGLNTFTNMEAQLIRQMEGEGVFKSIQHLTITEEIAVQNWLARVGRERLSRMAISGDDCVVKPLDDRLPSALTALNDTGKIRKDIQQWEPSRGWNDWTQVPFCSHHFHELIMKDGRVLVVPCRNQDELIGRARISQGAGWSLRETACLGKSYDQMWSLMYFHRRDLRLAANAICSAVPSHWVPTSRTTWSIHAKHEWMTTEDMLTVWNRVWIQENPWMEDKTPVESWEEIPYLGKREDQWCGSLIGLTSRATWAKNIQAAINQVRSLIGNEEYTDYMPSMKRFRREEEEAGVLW
Chain of Peroxisome proliferator-activated receptor gamma/Nuclear receptor coactivator 2 (P37231 whole entry): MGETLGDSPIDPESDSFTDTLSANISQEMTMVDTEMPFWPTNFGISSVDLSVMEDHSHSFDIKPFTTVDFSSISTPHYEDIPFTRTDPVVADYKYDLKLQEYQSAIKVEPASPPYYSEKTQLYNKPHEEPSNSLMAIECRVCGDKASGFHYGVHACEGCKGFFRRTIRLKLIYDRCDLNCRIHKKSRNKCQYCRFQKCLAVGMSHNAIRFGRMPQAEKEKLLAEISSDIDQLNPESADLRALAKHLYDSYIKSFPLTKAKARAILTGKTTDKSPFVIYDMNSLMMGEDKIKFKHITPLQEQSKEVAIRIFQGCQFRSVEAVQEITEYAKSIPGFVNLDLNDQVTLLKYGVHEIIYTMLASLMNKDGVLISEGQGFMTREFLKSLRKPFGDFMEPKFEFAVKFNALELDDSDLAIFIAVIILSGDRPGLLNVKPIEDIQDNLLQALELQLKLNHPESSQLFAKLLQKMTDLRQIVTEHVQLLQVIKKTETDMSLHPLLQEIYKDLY
Chain of Peroxisome proliferator-activated receptor gamma/Nuclear receptor coactivator 2 (Q15596 whole entry, further chain): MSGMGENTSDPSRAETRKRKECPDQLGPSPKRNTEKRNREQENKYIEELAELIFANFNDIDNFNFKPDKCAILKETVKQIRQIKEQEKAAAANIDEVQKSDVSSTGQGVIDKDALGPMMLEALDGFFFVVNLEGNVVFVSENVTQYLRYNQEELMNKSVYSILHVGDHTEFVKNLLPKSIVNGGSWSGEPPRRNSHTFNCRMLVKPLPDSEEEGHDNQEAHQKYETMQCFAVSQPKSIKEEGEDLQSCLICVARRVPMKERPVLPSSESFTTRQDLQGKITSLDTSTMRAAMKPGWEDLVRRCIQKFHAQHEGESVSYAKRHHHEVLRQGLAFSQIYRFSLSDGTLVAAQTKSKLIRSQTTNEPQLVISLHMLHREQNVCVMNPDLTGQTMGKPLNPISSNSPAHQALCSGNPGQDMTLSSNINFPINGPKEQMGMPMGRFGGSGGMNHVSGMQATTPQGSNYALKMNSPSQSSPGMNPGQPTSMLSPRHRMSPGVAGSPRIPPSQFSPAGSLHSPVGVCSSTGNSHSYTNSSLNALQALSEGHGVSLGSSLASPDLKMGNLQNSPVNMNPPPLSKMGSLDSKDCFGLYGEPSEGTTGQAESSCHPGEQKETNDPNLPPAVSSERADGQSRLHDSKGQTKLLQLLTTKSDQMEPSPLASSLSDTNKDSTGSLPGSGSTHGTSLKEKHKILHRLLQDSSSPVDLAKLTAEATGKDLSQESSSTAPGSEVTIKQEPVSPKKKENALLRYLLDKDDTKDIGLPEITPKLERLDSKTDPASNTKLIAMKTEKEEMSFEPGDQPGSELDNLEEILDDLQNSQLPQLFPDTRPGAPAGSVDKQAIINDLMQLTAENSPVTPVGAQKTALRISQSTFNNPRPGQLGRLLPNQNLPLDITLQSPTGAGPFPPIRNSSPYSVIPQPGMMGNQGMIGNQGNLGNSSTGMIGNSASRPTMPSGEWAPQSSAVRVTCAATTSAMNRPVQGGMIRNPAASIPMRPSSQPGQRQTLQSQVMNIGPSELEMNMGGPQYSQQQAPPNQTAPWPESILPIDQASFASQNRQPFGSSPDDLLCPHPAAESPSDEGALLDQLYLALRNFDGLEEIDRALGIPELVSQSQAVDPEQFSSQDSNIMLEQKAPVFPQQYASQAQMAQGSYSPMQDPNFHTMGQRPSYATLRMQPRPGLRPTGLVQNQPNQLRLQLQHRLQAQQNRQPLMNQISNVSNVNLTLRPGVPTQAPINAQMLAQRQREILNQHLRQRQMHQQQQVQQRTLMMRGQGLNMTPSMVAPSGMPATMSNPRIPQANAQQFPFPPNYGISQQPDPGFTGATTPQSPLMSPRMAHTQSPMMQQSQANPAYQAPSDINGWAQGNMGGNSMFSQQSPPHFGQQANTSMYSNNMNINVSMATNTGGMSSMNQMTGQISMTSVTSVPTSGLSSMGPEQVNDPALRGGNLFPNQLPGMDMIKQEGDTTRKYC
Chain of Peroxisome proliferator-activated receptor gamma/Nuclear receptor coactivator 1 (P37231 whole entry): as the sequence (P37231 whole entry) above
Chain of Peroxisome proliferator-activated receptor gamma/Nuclear receptor coactivator 1 (Q15788 whole entry, further chain): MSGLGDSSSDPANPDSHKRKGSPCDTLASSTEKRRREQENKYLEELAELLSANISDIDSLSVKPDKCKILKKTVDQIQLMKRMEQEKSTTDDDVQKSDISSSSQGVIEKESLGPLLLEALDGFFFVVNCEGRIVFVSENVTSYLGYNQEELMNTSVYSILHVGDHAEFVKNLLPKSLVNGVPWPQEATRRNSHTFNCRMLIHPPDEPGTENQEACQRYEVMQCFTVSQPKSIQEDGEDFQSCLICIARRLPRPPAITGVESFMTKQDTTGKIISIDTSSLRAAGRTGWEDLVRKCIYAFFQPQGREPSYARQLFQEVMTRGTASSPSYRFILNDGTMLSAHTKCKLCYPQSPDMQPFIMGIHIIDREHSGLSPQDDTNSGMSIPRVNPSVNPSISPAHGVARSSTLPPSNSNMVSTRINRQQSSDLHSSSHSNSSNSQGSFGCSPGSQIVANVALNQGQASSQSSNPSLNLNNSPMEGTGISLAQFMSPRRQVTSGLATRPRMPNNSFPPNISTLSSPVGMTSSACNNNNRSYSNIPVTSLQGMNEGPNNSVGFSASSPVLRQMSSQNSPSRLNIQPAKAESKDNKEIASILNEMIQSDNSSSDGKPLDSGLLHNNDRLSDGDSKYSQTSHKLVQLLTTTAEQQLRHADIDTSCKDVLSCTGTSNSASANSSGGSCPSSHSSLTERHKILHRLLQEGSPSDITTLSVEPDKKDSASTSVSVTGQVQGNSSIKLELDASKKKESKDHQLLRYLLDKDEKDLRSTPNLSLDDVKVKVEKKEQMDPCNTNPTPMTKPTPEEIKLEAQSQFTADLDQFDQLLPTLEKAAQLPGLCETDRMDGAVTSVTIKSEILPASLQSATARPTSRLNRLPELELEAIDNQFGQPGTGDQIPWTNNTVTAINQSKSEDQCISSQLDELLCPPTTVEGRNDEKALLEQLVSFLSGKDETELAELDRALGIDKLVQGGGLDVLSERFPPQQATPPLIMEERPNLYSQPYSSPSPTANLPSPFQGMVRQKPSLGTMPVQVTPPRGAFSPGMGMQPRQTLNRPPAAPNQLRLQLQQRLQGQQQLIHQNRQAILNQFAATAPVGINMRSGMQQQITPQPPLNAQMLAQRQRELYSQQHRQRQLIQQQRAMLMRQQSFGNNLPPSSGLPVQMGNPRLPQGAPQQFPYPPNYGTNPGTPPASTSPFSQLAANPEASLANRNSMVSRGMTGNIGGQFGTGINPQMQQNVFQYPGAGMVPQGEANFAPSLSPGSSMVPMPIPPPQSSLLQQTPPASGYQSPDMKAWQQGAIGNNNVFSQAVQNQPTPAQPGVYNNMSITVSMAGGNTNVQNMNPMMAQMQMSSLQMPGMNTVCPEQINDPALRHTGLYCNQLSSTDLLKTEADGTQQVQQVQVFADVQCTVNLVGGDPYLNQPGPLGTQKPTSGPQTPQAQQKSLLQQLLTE
Chain of Glutathione-S-transferase (Q26513 whole entry): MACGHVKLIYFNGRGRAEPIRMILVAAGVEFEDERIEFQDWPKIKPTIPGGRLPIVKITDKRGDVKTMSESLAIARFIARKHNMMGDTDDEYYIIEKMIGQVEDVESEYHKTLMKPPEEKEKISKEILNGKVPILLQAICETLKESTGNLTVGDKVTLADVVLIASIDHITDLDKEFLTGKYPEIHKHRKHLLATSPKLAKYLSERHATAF

With `CC[n+]1ccc(C)c2cc(P(=O)(c3ccccc3)c3ccccc3)ccc21` the IC50 [1] was 9.73 µM (active).
For `Cc1ccc(CNc2ccc(O)cc2)cc1`, the CC50 [2] was > 40 µM (active), the IC50 [3] was > 80 µM (inactive) and the IC50 [4] was 25.5 µM (inconclusive). The IC50 [5] was 92.5 µM (active) and the IC50 [6] was > 50.9 µM (active).
In the case of `CCCCCCC(=O)N(O)C1CC(=O)N(c2ccc(Br)cc2)C1=O` (configuration not stated), the CC50 [7] is reported as > 40 µM (active) and the AC50 [8] is reported as 3.17 µM (active).
With `CCn1c(=O)n(CC(=O)Nc2cc(OC)c(OC)c(OC)c2)c(=O)c2ccccc21` the EC50 [9] was 13.2 µM (not active).
With `Cn1ccnc1C1CCCCN1Cc1nc(-c2ccc3c(c2)OCO3)no1` (configuration not stated) the EC50 [10] was > 79.4 µM (not active), the IC50 [11] was > 35 µM (not active) and the EC50 [12] was > 79.4 µM (not active). The EC50 [13] was > 79.4 µM (not active).
In the case of `COc1ccc(-c2nnc3sc(-c4c(OC)cccc4OC)nn23)cc1`, the IC50 [14] is reported as 18.1 µM (active) and the IC50 [15] is reported as > 100 µM (not active).
With `C[C@H]1CN([C@@H](C)CO)C(=O)c2c(c3ccccc3n2C)-c2ccccc2CO[C@H]1CN(C)S(=O)(=O)c1ccc([N+](=O)[O-])cc1` the AC50 [16] was 48.5 µM (active), the AC50 [17] was 2.72 µM (active) and the AC50 [18] was 12.7 µM (active). The AC50 [19] was 10.1 µM (active), the AC50 [20] was 0.629 µM (active) and the AC50 [21] was 12.2 µM (active). For the same compound, the AC50 [22] was 0.234 µM (active), the AC50 [23] was 10.2 µM (active) and the AC50 [24] was 66.4 µM (active). The AC50 [25] was 22.3 µM (active), the AC50 [26] was 0.298 µM (active) and the AC50 [27] was 0.237 µM (active).
